Test results published in patent US20080280326A1, “Novel Gonadotropin-Releasing Hormone, Precursor Peptides Thereof and Genes Encoding the Same” (SUNTORY LIMITED, priority 2000, published 2008).
Square brackets hold non-standard residues; d marks the D form. pGlu = O=C1CC[C@@H](C(=O)O)N1

How the values were obtained:
heart of O. vulgaris = assay: Measurement of the heart beat activity of O. vulgaris (isolated cannulated heart); set-up: species or system Octopus vulgaris; details: for variation of the heart beat of O. vulgaris (heart rate and amplitude): 10^-5 M added to the chamber (FIG. 3)
Experimental: The heart beat activity of O. vulgaris was measured according to the method proposed by Morishita, et al. (Fumihiro Morishita, Biochem. Biophys. Res. Commun., 240, 354-358 (1997)). Specifically, the heart was taken from O. vulgaris and the atria were removed from the heart. A cannula was inserted from each atrium into the ventricle and was at the same time connected to a chamber (80 ml in volume) by tying with a cotton thread. The aorta was pinched to prevent leakage of liquid from the ventricle and was connected to a tension transducer. This completed preparation of the heart to serve as a specimen for the assay. Each cannula was adjusted to permit a 1 to 2 ml/min flow of artificial sea water (containing 0.1% glucose). Each of the analytes to be assayed was dissolved in 1 ml of the same artificial sea-water, and the resulting solution was injected into the heart through the cannulae. The variation of the heart beat was recorded.
As test compounds, Compound (1) isolated from the brains of O. vulgaris, Compound (2), and cGnRH-II, a vertebrate GnRH isolated from chickens and used to derive Compound (2) therefrom, were used.

[1] = test system: Cells taken from the pituitary glands of quails; assay: Release of luteinizing hormone (LH) from cultured quail pituitary gland cells, radioimmunoassay; type: cell-based; details: final concentrations 0, 10^-9 to 10^-5 M, 4 hrs incubation, one-way ANOVA (FIG. 4)
Experimental: Cells taken from the pituitary glands of quails were inoculated onto a 24-well plate at 7.5×10^5 cells/well (substantially equivalent to two animals). The cells were then incubated for 3 days in a culture medium containing fetal calf serum. The cells were incubated for another 24 hrs in 1 ml serum-free medium. After the incubation period, the peptide solution was added to the culture medium to final concentrations of 0, 10^−9, 10^−8, 10^−7, 10^−6 and 10^−5 M, respectively, and the cultures were further incubated for 4 hrs. The supernatant was then collected from each culture. For each concentration, 5 samples were subjected to radioimmunoassay and measurements were taken. The data were statistically analyzed by one-way analysis of variance (ANOVA).

Substance | variation of the heart beat of O. vulgaris (heart rate and amplitude) (heart of O. vulgaris) | release of luteinizing hormone (LH) [1] | variation of the heart beat of O. vulgaris (heart of O. vulgaris; amount of Compound (1) corresponding to one specimen of O. vulgaris added to the chamber (FIG. 2)) | cardioactivity toward the heart beat of O. vulgaris, synthetic versus naturally-occurring peptide (heart of O. vulgaris; purified synthetic peptide of Example 3)
cGnRH-II: chicken-II-type GnRH, a vertebrate decapeptide GnRH isolated from chickens, used to derive Compound (2) ([pGlu]HWSHGWYPG-NH2; ends and bridges not checked; UniProt P68072 1-10, looked up) [reference compound] | did not have any effect on the heart rate or the amplitude of the heart beat of O. vulgaris | – | – | –
<Glu-His-Phe-Ser-Asn-Gly-Trp-His-Pro-Gly-NH2 ([pGlu]HFSNGWHPG-NH2; SMILES NC(=O)CNC(=O)[C@@H]1CCCN1C(=O)[C@H](Cc1c[nH]cn1)NC(=O)[C@H](Cc1c[nH]c2ccccc12)NC(=O)CNC(=O)[C@H](CC(N)=O)NC(=O)[C@H](CO)NC(=O)[C@H](Cc1ccccc1)NC(=O)[C@H](Cc1c[nH]cn1)NC(=O)[C@@H]1CCC(=O)N1; listed as Octopus vulgaris) [Compound (3), decapeptide obtained by deletion of amino acids 2 and 3 from the N-terminal region of Compound (1)] | – | increase the release of luteinizing hormone (LH) | – | –
<Glu-Asn-Tyr-His-Phe-Ser-Asn-Gly-Trp-His-Pro-Gly-NH2 ([pGlu]NYHFSNGWHPG-NH2; listed as Octopus vulgaris) [Compound (1)] | – | significantly increased the release of luteinizing hormone (LH) | enhanced the heart beat of O. vulgaris | same cardioactivity toward the heart beat of O. vulgaris as did the naturally-occurring peptide
<Glu-Asn-Tyr-His-Trp-Ser-His-Gly-Trp-Tyr-Pro-Gly-NH2 ([pGlu]NYHWSHGWYPG-NH2; SMILES NC(=O)CNC(=O)[C@@H]1CCCN1C(=O)[C@H](Cc1ccc(O)cc1)NC(=O)[C@H](Cc1c[nH]c2ccccc12)NC(=O)CNC(=O)[C@H](Cc1c[nH]cn1)NC(=O)[C@H](CO)NC(=O)[C@H](Cc1c[nH]c2ccccc12)NC(=O)[C@H](Cc1c[nH]cn1)NC(=O)[C@H](Cc1ccc(O)cc1)NC(=O)[C@H](CC(N)=O)NC(=O)[C@@H]1CCC(=O)N1) [Compound (2), cGnRH-II with Asn-Tyr inserted between the first <Glu and the second His residues] | enhanced the heart beat of O. vulgaris by increasing both the heart rate and the amplitude of the heart beat | – | – | –
